Laboratory results from patent publication US7064229B2, “Succinic acid derivatives” (Bayer Healthcare AG, priority 2001, dated 2006).

Columns and labels:
[1] = target: α4β1 integrin (VLA-4) on Ramos cells / recombinant human VCAM-1 (extracellular domains 1–3) (Homo sapiens, UniProt P05556+P13612); experiment: Adhesion of Ramos cells to immobilized VCAM-1 (domains 1–3); type: cell-based; design: host or cells: Ramos cells; conditions: Ramos VCAM-1 assay; observed IC50 value ranges
Description: In Vitro Assay: Adhesion of Ramos Cells to Immobilized VCAM-1 (Domains 1–3) Preparation of VCAM-1 (Extracellular Domains 1–3)
Complementary DNA (cDNA) encoding 7-domain form of VCAM-1 (GenBank accession #M60335) was obtained using Rapid-Screen™ cDNA library panels (OriGene Technologies, Inc) at Takara Gene Analysis Center (Shiga, Japan). The primers used were 5′-CCAAGGCAGAGTACGCAAAC-3′ (sense) and 5′-TGGCAGGTATTATTAAGGAG-3′ (antisense). PCR amplification of the 3-domain VCAM-1 cDNA was perform using Pƒ. DNA polymerase (Stratagene) with the following sets of primers: (U-VCAMdl-3) 5′-CCATATGGTACCTGATCAATTTAAAATCGAGACCACCCCAGAA-3′; (L-VCAMdl-3) 5′-CCATATAGCAATCCTAGGTCCAGGGGAGATCTCAACAGTAAA-3′. PCR cycle was 94° C. for 45 sec, 55° C. for 45 sec, 72° C. for 2 min, repeating 15 cycles. After the purification of the PCR product, the fragment was digested with KpnI-AvrII. The digested fragment was ligated into pBluescript IISK(−) (Strategene), which was linearized by digesting with KpnI-XhoI. The ligation was followed by transformation to a Dam/Dcm methylase-free E. coli strain SCS110 (Strategene) to create the donor plasmid pHH7. To direct VCAM-1 molecule into the insect cell secretory pathway, the VCAM-1 coding sequence was fused to signal peptide sequence of honeybee melittin. The resulting melittin-VCAM fusion was placed in correct orientation to the baculovirus polyhedrin promoter. Baculovirus transfer vector containing first 3-domain form VCAM-1 (pH10) was constructed by ligation of 0.9 kb fragment from AvrII/Klenow/BclI digests of pH7 into SalI/Klenow/BamHI digests of pMelBacB (Invitrogen). […] The recombinant virus was amplified by infection to High-Five™ insect cells for 5–6 days, and virus titer was determined by plaque assay.
High-Five™ insect cells were pelleted in a 225 ml conical tube by centrifugation at 1000 rpm for 5 min. […] Protein concentration was determined by using Coomassie protein assay reagent (Pierce) according to the manufacture's instruction. […]
Preparation of Fluorescence Labeled Ramos Cells […]

α4β1 integrin (VLA-4) on Ramos cells / recombinant human VCAM-1 (extracellular domains 1–3), sequence (P13612 34-1032): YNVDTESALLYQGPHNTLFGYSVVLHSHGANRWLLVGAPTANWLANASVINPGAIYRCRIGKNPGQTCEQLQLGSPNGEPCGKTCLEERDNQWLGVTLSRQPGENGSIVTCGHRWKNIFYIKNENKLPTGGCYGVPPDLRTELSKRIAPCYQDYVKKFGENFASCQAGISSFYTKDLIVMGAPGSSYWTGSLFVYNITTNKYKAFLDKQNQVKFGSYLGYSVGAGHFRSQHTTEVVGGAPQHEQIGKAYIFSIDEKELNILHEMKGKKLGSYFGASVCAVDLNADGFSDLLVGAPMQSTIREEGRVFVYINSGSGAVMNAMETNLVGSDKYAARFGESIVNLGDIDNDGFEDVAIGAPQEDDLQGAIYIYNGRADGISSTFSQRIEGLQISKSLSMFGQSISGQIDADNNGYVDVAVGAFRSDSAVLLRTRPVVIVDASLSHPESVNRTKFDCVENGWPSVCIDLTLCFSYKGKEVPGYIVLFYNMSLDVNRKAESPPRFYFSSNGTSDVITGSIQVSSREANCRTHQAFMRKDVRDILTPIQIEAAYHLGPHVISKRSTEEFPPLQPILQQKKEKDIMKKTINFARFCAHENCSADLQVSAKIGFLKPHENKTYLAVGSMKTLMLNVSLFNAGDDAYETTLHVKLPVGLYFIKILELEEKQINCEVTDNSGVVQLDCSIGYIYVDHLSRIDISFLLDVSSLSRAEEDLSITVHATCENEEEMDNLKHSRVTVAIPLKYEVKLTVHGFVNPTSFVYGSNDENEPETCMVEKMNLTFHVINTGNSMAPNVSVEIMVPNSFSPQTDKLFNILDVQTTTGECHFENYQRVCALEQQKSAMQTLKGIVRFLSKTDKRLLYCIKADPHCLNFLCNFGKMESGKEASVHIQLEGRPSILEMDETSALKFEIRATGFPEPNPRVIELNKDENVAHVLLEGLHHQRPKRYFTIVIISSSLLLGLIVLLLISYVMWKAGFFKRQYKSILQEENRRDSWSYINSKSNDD
α4β1 integrin (VLA-4) on Ramos cells / recombinant human VCAM-1 (extracellular domains 1–3), sequence (P05556 21-798): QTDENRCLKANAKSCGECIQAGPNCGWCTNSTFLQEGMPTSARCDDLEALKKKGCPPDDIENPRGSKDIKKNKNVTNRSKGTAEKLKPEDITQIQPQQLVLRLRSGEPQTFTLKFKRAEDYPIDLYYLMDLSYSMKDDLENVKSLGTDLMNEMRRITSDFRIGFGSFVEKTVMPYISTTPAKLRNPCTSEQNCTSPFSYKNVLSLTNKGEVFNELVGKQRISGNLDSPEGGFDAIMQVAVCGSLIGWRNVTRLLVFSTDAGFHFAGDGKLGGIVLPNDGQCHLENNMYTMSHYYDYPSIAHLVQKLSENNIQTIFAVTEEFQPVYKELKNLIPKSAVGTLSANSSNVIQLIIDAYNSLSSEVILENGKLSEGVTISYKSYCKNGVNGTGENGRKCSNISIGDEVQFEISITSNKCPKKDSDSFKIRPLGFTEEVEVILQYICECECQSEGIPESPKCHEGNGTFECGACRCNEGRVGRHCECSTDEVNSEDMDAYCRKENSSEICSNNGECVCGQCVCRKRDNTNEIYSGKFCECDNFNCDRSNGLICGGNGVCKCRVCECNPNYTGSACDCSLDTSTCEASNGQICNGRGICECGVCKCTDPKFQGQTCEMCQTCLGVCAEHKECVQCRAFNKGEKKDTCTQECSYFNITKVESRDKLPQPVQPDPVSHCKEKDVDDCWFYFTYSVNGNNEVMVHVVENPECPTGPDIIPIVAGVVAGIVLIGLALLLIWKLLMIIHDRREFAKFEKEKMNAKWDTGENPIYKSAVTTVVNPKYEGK

IC50 [1] [nM]	melting point [°C]	SMILES
> 10000	–	Cc1ccccc1NC(=O)Nc1ccc(NC(=O)CC(C(=O)Nc2ccc(C(=O)O)cc2)c2ccccc2)cc1 (centres unmarked) [Example 2, 4-[(4-{[4-({[(2-Methyl-phenyl)amino]carbonyl}-ami-no)phenyl]amino}-4-oxo-2-phenyl-butanoyl)amino]benzoic acid]
< 1000	126	Cc1ccccc1NC(=O)Nc1ccc(CNC(=O)CC(C(=O)Nc2ccc(C(=O)O)cc2)c2ccccc2)cc1 (centres unmarked) [Example 4, 4-[(4-{[4-({[(2-Methyl-phenyl)amino]carbonyl}-ami-no)benzyl]amino}-4-oxo-2-phenyl-butanoyl)-ami-no]benzoic acid]
< 1000	169	Cc1ccccc1NC(=O)Nc1ccc(NC(=O)C(CC(=O)Nc2ccc(C(=O)O)cc2)c2ccccc2)cc1 (centres unmarked) [Example 1, 4-[(4-{[4-({[(2-Methylphenyl)amino]carbonyl}amino)phenyl]-amino}-4-oxo-3-phenylbutanoyl)amino]benzoic acid]
